US7754695B2, “Lipase inhibitors” (Suntory Holdings Limited, priority 2004, dated 2010)

Target: T1, porcine pancreatic lipase (Sus scrofa, UniProt P00591)
T1 construct: purchased Sigma
T1 sequence (P00591 1-450): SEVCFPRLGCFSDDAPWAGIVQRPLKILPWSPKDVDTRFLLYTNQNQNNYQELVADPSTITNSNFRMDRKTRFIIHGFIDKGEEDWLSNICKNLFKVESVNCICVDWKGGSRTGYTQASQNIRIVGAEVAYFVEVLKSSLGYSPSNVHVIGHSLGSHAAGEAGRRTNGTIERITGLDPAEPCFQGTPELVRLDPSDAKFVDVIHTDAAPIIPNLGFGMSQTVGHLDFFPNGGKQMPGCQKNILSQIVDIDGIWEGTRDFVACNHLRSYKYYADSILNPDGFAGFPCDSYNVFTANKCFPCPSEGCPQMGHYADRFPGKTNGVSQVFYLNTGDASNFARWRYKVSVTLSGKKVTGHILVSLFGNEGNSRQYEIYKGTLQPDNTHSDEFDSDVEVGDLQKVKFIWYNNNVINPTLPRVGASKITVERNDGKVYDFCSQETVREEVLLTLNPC
Experiment: Lipase inhibitory activity measurement (4-UMO fluorescence substrate)
Format: biochemical
Conditions: for IC50: 4-UMO substrate, pH 8.0, 25 degrees, 30 minutes of reaction; for lipase inhibitory activity (in words): summary of Table 1
Procedure: Lipase activity measurement was carried out by using oleic acid ester of fluorescence 4-methylumbelliferone (4-UMO) as a substrate, and measuring the fluorescence of 4-methylumbelliferone produced by reaction.
Substrate 4-UMO (Sigma) is prepared as 0.1 M solution in DMSO and diluted 1000 times with the buffer mentioned above. Similarly, lipase (porcine pancreatic lipase (Sigma)) is prepared as 400 U/ml solution in the buffer mentioned above and used in enzymatic measurement.
50 μl of 4-UMO buffer solution and 25 μl of distilled water (or sample solution) are placed in 96 well microplate and mixed at 25 degrees, followed by adding 25 μl of lipase buffer solution to start enzyme reaction. After 30 minutes of reaction, 100 μl of 0.1 M citric acid buffer (pH 4.2) was added to terminate the reaction, and fluorescence of 4-methylumbelliferone (excitation wavelength: 355 nm, fluorescence wavelength: 460 nm) produced by the reaction was measured with a fluorescence plate reader (Labsystems, Fluoroskan Asent CF).

Structure (SMILES): O=C(OCC1OC(OC(=O)c2cc(O)c(O)c(O)c2)C(O)C(O)C1OC(=O)c1cc(O)c(O)c(O)c1)c1cc(O)c(O)c(O)c1 [1,4,6-tri-O-galloyl-D-glucose (4), 1,4,6-tri-O-galloyl-D-glucose]
- IC50: 1230 nM
- lipase inhibitory activity (in words): showed lipase inhibitory activity

Structure (SMILES): O=C(OC[C@H]1OC(OC(=O)c2cc(O)c(O)c(O)c2)[C@H](OC(=O)c2cc(O)c(O)c(O)c2)[C@@H](O)[C@@H]1OC(=O)c1cc(O)c(O)c(O)c1)c1cc(O)c(O)c(O)c1 (some centres unmarked) [1,2,4,6-tetra-GA-Glc (6), 1,2,4,6-tetragalloylglucose]
- IC50: 203 nM
- lipase inhibitory activity (in words): showed lipase inhibitory activity

Structure (SMILES): O=C(O[C@H]1[C@@H]2OC(=O)c3cc(O)c(O)c(O)c3-c3c(cc(O)c(O)c3O)C(=O)OC[C@H]2OC(O)[C@@H]1OC(=O)c1cc(O)c(O)c(O)c1)c1cc(O)c(O)c(O)c1 (some centres unmarked) [Tellimagrandin1 (7), Tellimagrandin 1]
- IC50: 127 nM
- lipase inhibitory activity (in words): showed lipase inhibitory activity

Structure (SMILES): O=C(O[C@@H]1C[C@](O)(C(=O)O)C[C@@H](O)[C@H]1O)c1cc(O)c(O)c(O)c1 [theogallin (3), theogallin]
- IC50: > 50000 nM

Structure (SMILES): O=C(O[C@@H]1O[C@@H]2COC(=O)c3cc(O)c(O)c(O)c3-c3c(cc(O)c(O)c3O)C(=O)O[C@H]2[C@H](O)[C@H]1O)c1cc(O)c(O)c(O)c1 [strictinin (5), strictinin]
- IC50: 472 nM
- lipase inhibitory activity (in words): showed lipase inhibitory activity

Structure (SMILES): O=C(O[C@@H]1O[C@@H]2COC(=O)c3cc(O)c(O)c(O)c3-c3c(cc(O)c(O)c3O)C(=O)O[C@H]2[C@H](OC(=O)c2cc(O)c(O)c(O)c2)[C@H]1OC(=O)c1cc(O)c(O)c(O)c1)c1cc(O)c(O)c(O)c1 [Tellimagrandin2 (8), Tellimagrandin 2]
- IC50: 74 nM
- lipase inhibitory activity (in words): showed lipase inhibitory activity

Structure (SMILES): O=C(O[C@@H]1O[C@H](CO)[C@@H](O)[C@H](O)[C@H]1O)c1cc(O)c(O)c(O)c1 [β-glucogallin (2), β-glucogallin]
- IC50: > 50000 nM

Structure (SMILES): O=C(O)c1cc(O)c(O)c(O)c1 [Galli acid (1), Gallic acid, reference compound]
- IC50: > 50000 nM
- lipase inhibitory activity (in words): showed no activity
